Where “and” joins values, the source holds several entries; their conditions need not be identical. Equal values may be shown once. Inconclusive results and toxic doses are left out.
Tested on: P388 leukemia ip, CD2F1 mice, survival T/C
Assay: NCI In Vivo Anticancer Drug Screen. Data for tumor model P388 Leukemia (intraperitoneal) in CD2F1 (CDF1) mice
Settings: endpoint: median survival time, higher = longer survival
How it was run: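 Mice carrying the transplanted tumor received test compound or vehicle. Survival was recorded in each group, and the value is the treated-group measurement divided by that of the vehicle-treated control group.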

[1] = dose: 50.0 mg/kg/injection, schedule: Q01DX009 (ip), vehicle: Klucel (hydroxypropylcellulose) (HPC)
[2] = dose: 100.0 mg/kg/injection, schedule: Q01DX009 (ip), vehicle: Klucel (hydroxypropylcellulose) (HPC)
[3] = dose: 200.0 mg/kg/injection, schedule: Q01DX009 (ip), vehicle: Klucel (hydroxypropylcellulose) (HPC)
[4] = dose: 100.0 mg/kg/injection, schedule: Q01DX005 (ip), vehicle: saline with Tween-80
[5] = dose: 200.0 mg/kg/injection, schedule: Q01DX005 (ip), vehicle: saline with Tween-80
[6] = dose: 50.0 mg/kg/injection, schedule: Q01DX005 (ip), vehicle: Klucel (hydroxypropylcellulose) (HPC)
[7] = dose: 100.0 mg/kg/injection, schedule: Q01DX005 (ip), vehicle: Klucel (hydroxypropylcellulose) (HPC)
[8] = dose: 200.0 mg/kg/injection, schedule: Q01DX005 (ip), vehicle: Klucel (hydroxypropylcellulose) (HPC)
[9] = dose: 60.0 mg/kg/injection, schedule: Q01DX005 (ip), vehicle: saline with Tween-80
[10] = dose: 50.0 mg/kg/injection, schedule: Q01DX005 (ip), vehicle: saline
[11] = dose: 100.0 mg/kg/injection, schedule: Q01DX005 (ip), vehicle: saline

Compound: CC(=N)C(C#N)C(=S)S (stereo not drawn)
- T/C [1]: 102 % of control
- T/C [2]: 86 % of control
- T/C [3]: 89 % of control

Compound: COc1cccc(/C=C/S(=O)(=O)Cc2ccccc2)c1OC
- T/C (dose: 50.0 mg/kg/injection, schedule: Q01DX005 (ip), vehicle: saline with Tween-80): 93 % of control
- T/C [4]: 100 % of control
- T/C [5]: 91 % of control

Compound: CCOP(=O)(CCCCN1C(=O)c2ccccc2C1=O)OCC
- T/C (dose: 100.0 mg/kg/injection, schedule: Q01DX009 (ip), vehicle: saline): 100 % of control
- T/C (dose: 200.0 mg/kg/injection, schedule: Q01DX009 (ip), vehicle: saline): 100 % of control
- T/C (dose: 400.0 mg/kg/injection, schedule: Q01DX009 (ip), vehicle: saline): 100 % of control

Compound: Cc1ccc2nc3cc(N)ccc3c(-c3ccc(N)cc3)c2c1
- T/C [6]: 97 % of control
- T/C [7]: 102 % of control
- T/C [8]: 97 % of control

Compound: C=CC(COC(=O)C(C)(C)OC(C)=O)c1ccc(OC(=O)C(C)C)c(OC)c1 (stereo not drawn)
- T/C (dose: 12.5 mg/kg/injection, schedule: Q01DX009 (ip), vehicle: Klucel (hydroxypropylcellulose) (HPC)): 94 % of control
- T/C [1]: 100 % of control
- T/C [2]: 102 % of control

Compound: N#Cc1nnn(-c2ccc(Cl)cc2)c1N
- T/C [6]: 99 % of control
- T/C [7]: 97 % of control

Compound: CC(C)(C)CC(C)(C)NCC(O)COc1ccc(C(C)(C)c2ccc(OCC(O)CNC(C)(C)CC(C)(C)C)cc2)cc1 (stereo not drawn)
- T/C (dose: 3.13 mg/kg/injection, schedule: Q01DX009 (ip), vehicle: other): 104 % of control
- T/C (dose: 3.13 mg/kg/injection, schedule: Q04DX003 (ip), vehicle: other): 108 % of control
- T/C (dose: 6.25 mg/kg/injection, schedule: Q01DX009 (ip), vehicle: other): 90 % of control
- T/C (dose: 6.25 mg/kg/injection, schedule: Q04DX003 (ip), vehicle: other): 100 % of control

Compound: Cc1nc2ccccc2c(=O)n1NC(=S)Nc1ccc(Cl)cc1
- T/C (dose: 100.0 mg/kg/injection, schedule: Q04DX002 (ip), vehicle: saline with Tween-80): 90 % of control
- T/C (dose: 200.0 mg/kg/injection, schedule: Q04DX002 (ip), vehicle: saline with Tween-80): 88 % of control
- T/C (dose: 400.0 mg/kg/injection, schedule: Q04DX002 (ip), vehicle: saline with Tween-80): 90 % of control

Compound: COCCN1C(N)=C(C#N)C=C2CCCC(N=C(C#N)C#N)=C21
- T/C [9]: 101 % of control
- T/C [4]: 102 % of control
- T/C [5]: 102 % of control

Compound: COc1ccc(C(=S)SCCCC(=O)O)cc1
- T/C [1]: 102 % of control
- T/C [2]: 98 % of control
- T/C [3]: 92 % of control

Compound: CC(=O)NCC(O)CNC(C)=O
- T/C (dose: 6.25 mg/kg/injection, schedule: Q01DX009 (ip), vehicle: saline): 103 % of control
- T/C (dose: 12.5 mg/kg/injection, schedule: Q01DX009 (ip), vehicle: saline): 97 % of control
- T/C (dose: 25.0 mg/kg/injection, schedule: Q01DX009 (ip), vehicle: saline): 95 % of control

Compound: CCCCCCNC(N)=NCCCC(N)C(=O)O (stereo not drawn)
- T/C [6]: 103 % of control
- T/C [7]: 102 % of control
- T/C [8]: 106 % of control

Compound: CN1CC2(C)OC3(CC2(C)N1C)N(C)N(C)CC3(C)O (stereo not drawn)
- T/C [10]: 101 % of control
- T/C [11]: 101 % of control
- T/C (dose: 200.0 mg/kg/injection, schedule: Q01DX005 (ip), vehicle: saline): 101 % of control

Compound: Cc1nc(Nc2ccc(F)cc2)c2c(C)c(Cc3ccccc3)[nH]c2n1
- T/C [6]: 88 % of control
- T/C [7]: 89 % of control
- T/C [8]: 94 % of control

Compound: O=C(O)c1ccc2nc(-c3ccccc3)cn2c1
- T/C (dose: 12.5 mg/kg/injection, schedule: Q04DX003 (ip), vehicle: saline with Tween-80): 98 % of control
- T/C (dose: 25.0 mg/kg/injection, schedule: Q04DX003 (ip), vehicle: saline with Tween-80): 98 % of control
- T/C (dose: 50.0 mg/kg/injection, schedule: Q04DX003 (ip), vehicle: saline with Tween-80): 101 % of control and 105 % of control
- T/C (dose: 100.0 mg/kg/injection, schedule: Q04DX003 (ip), vehicle: saline with Tween-80): 106 % of control

Compound: Cc1ccc(NCCNCC(O)CO)c2c(=O)c3ccccc3sc12 (stereo not drawn)
- T/C (dose: 12.5 mg/kg/injection, schedule: Q01DX005 (ip), vehicle: Klucel (hydroxypropylcellulose) (HPC)): 109 % of control
- T/C (dose: 25.0 mg/kg/injection, schedule: Q01DX005 (ip), vehicle: Klucel (hydroxypropylcellulose) (HPC)): 118 % of control
- T/C [10]: 151 % of control

Compound: COc1cc(NCCN)c2ncsc2c1
- T/C [10]: 100 % of control
- T/C [11]: 102 % of control

Compound: COc1ccc(OC)c(C(=O)C=C(C(F)(F)F)C(F)(F)F)c1
- T/C (dose: 25.0 mg/kg/injection, schedule: Q01DX009 (ip), vehicle: other): 120 % of control
- T/C (dose: 50.0 mg/kg/injection, schedule: Q04DX003 (ip), vehicle: other): 113 % of control
- T/C (dose: 66.0 mg/kg/injection, schedule: Q04DX003 (ip), vehicle: other): 109 % of control
- T/C (dose: 100.0 mg/kg/injection, schedule: Q01DX009 (ip), vehicle: other): 95 % of control
- T/C (dose: 100.0 mg/kg/injection, schedule: Q04DX003 (ip), vehicle: other): 109 % of control
- T/C (dose: 150.0 mg/kg/injection, schedule: Q04DX003 (ip), vehicle: other): 113 % of control

Compound: CCOC(=O)C1(c2ccccc2)CCN(c2c3ccccc3nc3ccccc23)CC1
- T/C (dose: 25.0 mg/kg/injection, schedule: Q04DX003 (ip), vehicle: Klucel (hydroxypropylcellulose) (HPC)): 112 % of control
- T/C (dose: 50.0 mg/kg/injection, schedule: Q04DX003 (ip), vehicle: Klucel (hydroxypropylcellulose) (HPC)): 111 % of control
- T/C (dose: 100.0 mg/kg/injection, schedule: Q04DX003 (ip), vehicle: Klucel (hydroxypropylcellulose) (HPC)): 111 % of control and 115 % of control

Compound: c1ccc2c(CCc3c4ccccc4nc4ccccc34)c3ccccc3nc2c1
- T/C (dose: 100.0 mg/kg/injection, schedule: Q01DX001 (ip), vehicle: Klucel (hydroxypropylcellulose) (HPC)): 102 % of control
- T/C (dose: 200.0 mg/kg/injection, schedule: Q01DX001 (ip), vehicle: Klucel (hydroxypropylcellulose) (HPC)): 105 % of control
- T/C (dose: 400.0 mg/kg/injection, schedule: Q01DX001 (ip), vehicle: Klucel (hydroxypropylcellulose) (HPC)): 105 % of control

Compound: COc1ccc(N2CSC(=S)N(c3ccc(OC)cc3)C2)cc1
- T/C (dose: 400.0 mg/kg/injection, schedule: Q01DX009 (ip), vehicle: saline with Tween-80): 86 % of control

Compound: CCCCCCCCCCCCS(=O)CC(C)O (stereo not drawn)
- T/C (dose: 25.0 mg/kg/injection, schedule: Q01DX009 (ip), vehicle: saline + Tween-80 + alcohol): 99 % of control and 101 % of control
- T/C (dose: 50.0 mg/kg/injection, schedule: Q01DX009 (ip), vehicle: saline + Tween-80 + alcohol): 95 % of control and 97 % of control
- T/C (dose: 100.0 mg/kg/injection, schedule: Q01DX009 (ip), vehicle: saline + Tween-80 + alcohol): 92 % of control and 95 % of control
- T/C (dose: 200.0 mg/kg/injection, schedule: Q01DX009 (ip), vehicle: saline + Tween-80 + alcohol): 99 % of control and 105 % of control
- T/C (dose: 400.0 mg/kg/injection, schedule: Q01DX009 (ip), vehicle: saline + Tween-80 + alcohol): 99 % of control and 107 % of control

Compound: C=C1C(O)C23CCC4C(C(=O)O)(C(=O)O)CC(OC5OC(CO)C(O)C(OC(=O)CCc6ccccc6)C5NC(=O)CC(C)C)CC4(C)C2CCC1(O)C3 (stereo not drawn)
- T/C (dose: 0.25 mg/kg/injection, schedule: Q01DX005 (ip), vehicle: Klucel (hydroxypropylcellulose) (HPC)): 96 % of control
- T/C (dose: 0.5 mg/kg/injection, schedule: Q01DX005 (ip), vehicle: Klucel (hydroxypropylcellulose) (HPC)): 98 % of control
- T/C (dose: 1.0 mg/kg/injection, schedule: Q01DX005 (ip), vehicle: Klucel (hydroxypropylcellulose) (HPC)): 100 % of control
- T/C (dose: 3.12 mg/kg/injection, schedule: Q01DX005 (ip), vehicle: Klucel (hydroxypropylcellulose) (HPC)): 101 % of control

Compound: O=C/C=C/C1C=Cc2c3c(c(O)c(O)c2C(=O)C1O)OCC=C3 (stereo not drawn)
- T/C (dose: 6.0 mg/kg/injection, schedule: Q01DX009 (ip), vehicle: Klucel (hydroxypropylcellulose) (HPC)): 94 % of control
- T/C (dose: 12.0 mg/kg/injection, schedule: Q01DX009 (ip), vehicle: Klucel (hydroxypropylcellulose) (HPC)): 100 % of control
- T/C (dose: 24.0 mg/kg/injection, schedule: Q01DX009 (ip), vehicle: Klucel (hydroxypropylcellulose) (HPC)): 97 % of control
- T/C (dose: 48.0 mg/kg/injection, schedule: Q01DX009 (ip), vehicle: Klucel (hydroxypropylcellulose) (HPC)): 104 % of control

Compound: C=CCOCC1CN2CCOC2(C)O1 (stereo not drawn)
- T/C (dose: 200.0 mg/kg/injection, schedule: Q01DX009 (ip), vehicle: water): 105 % of control
- T/C (dose: 400.0 mg/kg/injection, schedule: Q01DX009 (ip), vehicle: water): 97 % of control
- T/C (dose: 800.0 mg/kg/injection, schedule: Q01DX009 (ip), vehicle: water): 105 % of control
- T/C (dose: 1600.0 mg/kg/injection, schedule: Q01DX009 (ip), vehicle: water): 102 % of control

Compound: Cc1ccc2nc(C)cc(N=[N+]=[N-])c2c1
- T/C [9]: 95 % of control
- T/C (dose: 120.0 mg/kg/injection, schedule: Q01DX005 (ip), vehicle: saline with Tween-80): 89 % of control

Source: PubChem BioAssay AID330 (DTP/NCI, 2004)
